From the supplement of paper PMC11061612

Tests used:
Assay in all cases: combination Emax (second highest fraction inhibited in the dose matrix, 72 h); higher = more inhibition; extreme values may be limits of the assay
[1] = system: BE2-M17 (Neuroblastoma)
Method in brief: (§1)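 Cell lines grown in DMEM/F12 or RPMI with 10% FBS were plated in 1536-well plates and held 24 hours at 37°C, 5% CO2 before 72 hours of exposure to two-drug dose matrices, with DMSO typically at 0.2%. CellTiter-Glo 2.0 luminescence gave viability, which was converted to inhibition. Vehicle wells were set to 0 and blank wells to 1. Combination Emax is the second-highest inhibition in the matrix, and Bliss excess is the observed combination effect minus the expected EA + EB − EA·EB, where EA and EB are the single-agent effects.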

[2] = system: CAL-72 (Osteosarcoma)
Method in brief: as §1

[3] = system: Detroit562 (Head and Neck Carcinoma)
Method in brief: as §1

[4] = system: EW-11 (Ewing's Sarcoma)
Method in brief: as §1

[5] = system: FTC-133 (Thyroid Gland Carcinoma)
Method in brief: as §1

[6] = system: HH (T-Cell Non-Hodgkin's Lymphoma)
Method in brief: as §1

[7] = system: HeLa (Cervical Carcinoma)
Method in brief: as §1

[8] = system: Hs-746T (Gastric Carcinoma)
Method in brief: as §1

[9] = system: KS-1 (Glioblastoma)
Method in brief: as §1

[10] = system: LCLC-97TM1 (Non-Small Cell Lung Carcinoma)
Method in brief: as §1

[11] = system: LNZTA3WT4 (Low Grade Glioma)
Method in brief: as §1

[12] = system: LOXIMVI (Melanoma)
Method in brief: as §1

[13] = system: LS-123 (Colorectal Carcinoma)
Method in brief: as §1

[14] = system: MPP-89 (Mesothelioma)
Method in brief: as §1

[15] = system: NCI-H2052 (Mesothelioma)
Method in brief: as §1

[16] = system: NCI-H2722 (Mesothelioma)
Method in brief: as §1

[17] = system: SNU-16 (Gastric Carcinoma)
Method in brief: as §1

[18] = system: SW1573 (Lung Adenocarcinoma)
Method in brief: as §1

[19] = system: SW1710 (Bladder Carcinoma)
Method in brief: as §1

[20] = system: TGBC1TKB (Biliary Tract Carcinoma)
Method in brief: as §1

Row | SMILES | combination Emax [1] | combination Emax [2] | combination Emax [3] | combination Emax [4] | combination Emax [5] | combination Emax [6] | combination Emax [7] | combination Emax [8] | combination Emax [9] | combination Emax [10] | combination Emax [11] | combination Emax [12] | combination Emax [13] | combination Emax [14] | combination Emax [15] | combination Emax [16] | combination Emax [17] | combination Emax [18] | combination Emax [19] | combination Emax [20]
1 | Cc1cc2ncnn2cc1Nc1ncc2c(n1)n(C1CCOCC1)c(=O)n2C [AZD7648] + CCN(CCO)CCCOc1ccc2c(Nc3cc(CC(=O)Nc4cccc(F)c4)[nH]n3)ncnc2c1 [AZD2811] (first compound max 10 µM, 7x7, partner max 1 µM) | 0.379 | 0.436 | 0.829 | 0.507 | 0.354 | 0.245 | 0.285 | 0.386 | 0.4 | 0.44 | 0.266 | 0.449 | 0.309 | 0.258 | 0.382 | 0.291 | 0.569 | 0.287 | 0.202 | 0.313
2 | CN(CCO)CC[C@H](CSc1ccccc1)Nc1ccc(S(=O)(=O)NC(=O)c2ccc(N3CCC([C@@H](O)c4ccccc4-c4ccc(Cl)cc4)CC3)cc2)cc1S(=O)(=O)C(F)(F)F [AZD4320] + Cc1cc2ncnn2cc1Nc1ncc2c(n1)n(C1CCOCC1)c(=O)n2C [AZD7648] (first compound max 1 µM, 7x7, partner max 10 µM) | 0.369 | 0.382 | 0.22 | 0.829 | 0.491 | 0.265 | 0.0576 | 0.347 | 0.319 | 0.203 | 0.132 | 0.343 | – | 0.281 | 0.245 | 0.159 | 0.3 | 0.104 | 0.131 | 0.577
3 | CN(CCO)CC[C@H](CSc1ccccc1)Nc1ccc(S(=O)(=O)NC(=O)c2ccc(N3CCC([C@@H](O)c4ccccc4-c4ccc(Cl)cc4)CC3)cc2)cc1S(=O)(=O)C(F)(F)F [AZD4320] + CCN(CCO)CCCOc1ccc2c(Nc3cc(CC(=O)Nc4cccc(F)c4)[nH]n3)ncnc2c1 [AZD2811] (first compound max 1 µM, 7x7, partner max 1 µM) | 0.64 | 0.373 | 0.825 | 0.865 | 0.681 | 0.348 | 0.192 | 0.487 | 0.464 | 0.366 | 0.122 | 0.443 | – | 0.526 | 0.128 | 0.401 | 0.747 | 0.62 | 0.154 | 0.424
4 | N#Cc1cnc(Nc2cc(NC[C@H]3CNCCO3)c(C(F)(F)F)cn2)cn1 [SRA737] + O=c1[nH]cc(F)c(=O)[nH]1 [5-Fluorouracil] (first compound max 10 µM, 7x7, partner max 20 µM) | – | 0.51 | – | 0.5 | – | 0.188 | – | – | 0.281 | – | 0.815 | 0.41 | 0.414 | 0.424 | – | – | 0.961 | – | 0.217 | 0.0891
5 | C[C@@H](c1ccc2nccn2c1)n1nnc2ncc(-c3cnn(C)c3)nc21 [Savolitinib] + CN(CC[C@H](CSC1=CC=CC=C1)NC2=C(C=C(C=C2)S(=O)(=O)NC(=O)C3=CC=C(C=C3)N4CCC(CC4)[C@H](C5=CC=CC=C5C6=CC=C(C=C6)Cl)O)S(=O)(=O)C(F)(F)F)CCO [AZD4320] (first compound max 1 µM, 7x7, partner max 1 µM) | 0.305 | – | 0.237 | – | 0.546 | – | 0.13 | 0.753 | – | 0.101 | – | – | – | – | 0.225 | 0.308 | – | 0.239 | – | –
6 | COc1cc2ncnc(Nc3ccc(F)c(Cl)c3)c2cc1OCCCN1CCOCC1 [Gefitinib] + CC(C)n1c(=O)n(C)c2cnc3cc(F)c(-c4ccc(OCCCN5CCCCC5)nc4)cc3c21 [AZD1390] (first compound max 10 µM, 7x7, partner max 0.3 µM) | 0.147 | 0.109 | 0.471 | 0.171 | 0.0388 | 0.221 | 0.0627 | 0.0968 | 0.0732 | 0.0902 | 0.129 | 0.32 | 0.226 | 0.112 | 0.137 | 0.0368 | 0.36 | 0 | 0.228 | 0.263
7 | N#Cc1cnc(Nc2cc(NC[C@H]3CNCCO3)c(C(F)(F)F)cn2)cn1 [SRA737] + C=CCn1c(=O)c2cnc(Nc3ccc(N4CCN(C)CC4)cc3)nc2n1-c1cccc(C(C)(C)O)n1 [AZD1775] (first compound max 10 µM, partner max 1 µM) | – | 0.88 | – | 0.603 | – | 0.475 | – | – | 0.499 | – | 0.91 | 0.562 | 0.722 | 0.661 | – | – | 0.995 | – | 0.644 | 0.271
8 | Cc1cc2ncnn2cc1Nc1ncc2c(n1)n(C1CCOCC1)c(=O)n2C [AZD7648] + O=C(c1cc(Cc2n[nH]c(=O)c3ccccc23)ccc1F)N1CCN(C(=O)C2CC2)CC1 [Olaparib] (first compound max 10 µM, 7x7, partner max 10 µM) | 0.414 | 0.322 | 0.376 | 0.582 | 0.259 | 0.22 | 0.22 | 0.337 | 0.162 | 0.199 | 0.0958 | 0.479 | 0.297 | 0.28 | 0.308 | 0.225 | 0.463 | 0.243 | 0.0781 | 0.201
9 | Cc1cc2ncnn2cc1Nc1ncc2c(n1)n(C1CCOCC1)c(=O)n2C [AZD7648] + COc1cc([C@@H]2c3cc4c(cc3[C@@H](O[C@@H]3O[C@@H]5CO[C@@H](C)O[C@H]5[C@H](O)[C@H]3O)[C@H]3COC(=O)[C@H]23)OCO4)cc(OC)c1O [Etoposide] (first compound max 10 µM, 7x7, partner max 10 µM) | – | 0.822 | – | 0.682 | – | 0.141 | – | – | 0.431 | – | 0.794 | 0.699 | 0.884 | 0.604 | – | – | 0.794 | – | 0.301 | 0.326
10 | Cc1cc2ncnn2cc1Nc1ncc2c(n1)n(C1CCOCC1)c(=O)n2C [AZD7648] + C=CCn1c(=O)c2cnc(Nc3ccc(N4CCN(C)CC4)cc3)nc2n1-c1cccc(C(C)(C)O)n1 [AZD1775] (first compound max 10 µM, partner max 1 µM) | 0.704 | 0.649 | 0.704 | 0.599 | 0.633 | 0.431 | 0.636 | 0.652 | 0.425 | 0.781 | 0.717 | 0.668 | 0.641 | 0.559 | 0.512 | 0.327 | 0.885 | 0.328 | 0.408 | 0.335
11 | N#Cc1cnc(Nc2cc(NC[C@H]3CNCCO3)c(C(F)(F)F)cn2)cn1 [SRA737] + CCc1c2c(nc3ccc(O)cc13)-c1cc3c(c(=O)n1C2)COC(=O)[C@]3(O)CC [SN-38] (first compound max 10 µM, 7x7, partner max 0.3 µM) | – | 0.91 | – | 0.682 | – | 0.452 | – | – | 0.458 | – | 0.84 | 0.859 | 0.773 | 0.73 | – | – | 0.995 | – | 0.676 | 0.367
12 | Cc1cc2ncnn2cc1Nc1ncc2c(n1)n(C1CCOCC1)c(=O)n2C [AZD7648] + C[C@@H]1COCCN1C2=NC(=NC(=C2)C3(CC3)[S@](=N)(=O)C)C4=C5C=CNC5=NC=C4 [AZD6738] (first compound max 10 µM, 7x7, partner max 10 µM) | 0.844 | 0.788 | 0.848 | 0.748 | 0.677 | 0.337 | 0.575 | 0.677 | 0.595 | 0.84 | 0.766 | 0.768 | 0.619 | 0.564 | 0.413 | 0.347 | 0.984 | 0.229 | 0.503 | 0.526
13 | CN(CCO)CC[C@H](CSc1ccccc1)Nc1ccc(S(=O)(=O)NC(=O)c2ccc(N3CCC([C@@H](O)c4ccccc4-c4ccc(Cl)cc4)CC3)cc2)cc1S(=O)(=O)C(F)(F)F [AZD4320] + CC(=O)O[C@H]1C(=O)[C@@]2(C)[C@H]([C@H](OC(=O)c3ccccc3)[C@]3(O)C[C@H](OC(=O)[C@H](O)[C@@H](NC(=O)c4ccccc4)c4ccccc4)C(C)=C1C3(C)C)[C@]1(OC(C)=O)CO[C@@H]1C[C@@H]2O [Paclitaxel] (first compound max 1 µM, 7x7, partner max 3 µM) | – | – | – | 0.927 | – | 0.837 | – | – | 0.937 | – | 0.967 | 0.955 | – | 0.983 | – | – | 1 | – | 0.98 | 0.894
14 | COc1nnc2ccc(N3CCC(c4ccc(OCCN5CCN(C)C(=O)[C@H]5C)cc4)CC3)nn12 [AZD5153] + CN(CC[C@H](CSC1=CC=CC=C1)NC2=C(C=C(C=C2)S(=O)(=O)NC(=O)C3=CC=C(C=C3)N4CCC(CC4)[C@H](C5=CC=CC=C5C6=CC=C(C=C6)Cl)O)S(=O)(=O)C(F)(F)F)CCO [AZD4320] (first compound max 1 µM, 7x7, partner max 1 µM) | 0.915 | – | 0.942 | – | 0.909 | – | 0.433 | 0.557 | – | 0.726 | – | – | – | – | 0.189 | 0.774 | – | 0.61 | – | –
